According to patent US9718785B2, “1,3-Disubstituted cyclopentane derivatives” (MERCK PATENT GMBH, priority 2013, dated 2017):

Target: T1, human recombinant full-length fatty acid synthase (FASN) (Homo sapiens, UniProt P49327)
T1 construct: 40 nM human recombinant full-length fatty acid synthase (produced in-house in SF9 cells); made in house; host or cells: SF9 insect cells
Assay: Biochemical activity testing of human fatty acid synthase FASN (NADPH fluorescence intensity enzyme assay)
Settings: human recombinant FASN, enzyme assay
Outline: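 Recombinant full-length human FASN from SF9 cells, preincubated with compound (10 concentrations, top 30 μM final, 1% DMSO) and NADPH ≥15 min at room temperature, pH 7.0. Acetyl-CoA and malonyl-CoA added; NADPH fluorescence (340/460 nm) read before and after 30 min. IC50 from signal difference, normalised to uninhibited reaction and GSK837149A zero control.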

T1 sequence (P49327 whole entry): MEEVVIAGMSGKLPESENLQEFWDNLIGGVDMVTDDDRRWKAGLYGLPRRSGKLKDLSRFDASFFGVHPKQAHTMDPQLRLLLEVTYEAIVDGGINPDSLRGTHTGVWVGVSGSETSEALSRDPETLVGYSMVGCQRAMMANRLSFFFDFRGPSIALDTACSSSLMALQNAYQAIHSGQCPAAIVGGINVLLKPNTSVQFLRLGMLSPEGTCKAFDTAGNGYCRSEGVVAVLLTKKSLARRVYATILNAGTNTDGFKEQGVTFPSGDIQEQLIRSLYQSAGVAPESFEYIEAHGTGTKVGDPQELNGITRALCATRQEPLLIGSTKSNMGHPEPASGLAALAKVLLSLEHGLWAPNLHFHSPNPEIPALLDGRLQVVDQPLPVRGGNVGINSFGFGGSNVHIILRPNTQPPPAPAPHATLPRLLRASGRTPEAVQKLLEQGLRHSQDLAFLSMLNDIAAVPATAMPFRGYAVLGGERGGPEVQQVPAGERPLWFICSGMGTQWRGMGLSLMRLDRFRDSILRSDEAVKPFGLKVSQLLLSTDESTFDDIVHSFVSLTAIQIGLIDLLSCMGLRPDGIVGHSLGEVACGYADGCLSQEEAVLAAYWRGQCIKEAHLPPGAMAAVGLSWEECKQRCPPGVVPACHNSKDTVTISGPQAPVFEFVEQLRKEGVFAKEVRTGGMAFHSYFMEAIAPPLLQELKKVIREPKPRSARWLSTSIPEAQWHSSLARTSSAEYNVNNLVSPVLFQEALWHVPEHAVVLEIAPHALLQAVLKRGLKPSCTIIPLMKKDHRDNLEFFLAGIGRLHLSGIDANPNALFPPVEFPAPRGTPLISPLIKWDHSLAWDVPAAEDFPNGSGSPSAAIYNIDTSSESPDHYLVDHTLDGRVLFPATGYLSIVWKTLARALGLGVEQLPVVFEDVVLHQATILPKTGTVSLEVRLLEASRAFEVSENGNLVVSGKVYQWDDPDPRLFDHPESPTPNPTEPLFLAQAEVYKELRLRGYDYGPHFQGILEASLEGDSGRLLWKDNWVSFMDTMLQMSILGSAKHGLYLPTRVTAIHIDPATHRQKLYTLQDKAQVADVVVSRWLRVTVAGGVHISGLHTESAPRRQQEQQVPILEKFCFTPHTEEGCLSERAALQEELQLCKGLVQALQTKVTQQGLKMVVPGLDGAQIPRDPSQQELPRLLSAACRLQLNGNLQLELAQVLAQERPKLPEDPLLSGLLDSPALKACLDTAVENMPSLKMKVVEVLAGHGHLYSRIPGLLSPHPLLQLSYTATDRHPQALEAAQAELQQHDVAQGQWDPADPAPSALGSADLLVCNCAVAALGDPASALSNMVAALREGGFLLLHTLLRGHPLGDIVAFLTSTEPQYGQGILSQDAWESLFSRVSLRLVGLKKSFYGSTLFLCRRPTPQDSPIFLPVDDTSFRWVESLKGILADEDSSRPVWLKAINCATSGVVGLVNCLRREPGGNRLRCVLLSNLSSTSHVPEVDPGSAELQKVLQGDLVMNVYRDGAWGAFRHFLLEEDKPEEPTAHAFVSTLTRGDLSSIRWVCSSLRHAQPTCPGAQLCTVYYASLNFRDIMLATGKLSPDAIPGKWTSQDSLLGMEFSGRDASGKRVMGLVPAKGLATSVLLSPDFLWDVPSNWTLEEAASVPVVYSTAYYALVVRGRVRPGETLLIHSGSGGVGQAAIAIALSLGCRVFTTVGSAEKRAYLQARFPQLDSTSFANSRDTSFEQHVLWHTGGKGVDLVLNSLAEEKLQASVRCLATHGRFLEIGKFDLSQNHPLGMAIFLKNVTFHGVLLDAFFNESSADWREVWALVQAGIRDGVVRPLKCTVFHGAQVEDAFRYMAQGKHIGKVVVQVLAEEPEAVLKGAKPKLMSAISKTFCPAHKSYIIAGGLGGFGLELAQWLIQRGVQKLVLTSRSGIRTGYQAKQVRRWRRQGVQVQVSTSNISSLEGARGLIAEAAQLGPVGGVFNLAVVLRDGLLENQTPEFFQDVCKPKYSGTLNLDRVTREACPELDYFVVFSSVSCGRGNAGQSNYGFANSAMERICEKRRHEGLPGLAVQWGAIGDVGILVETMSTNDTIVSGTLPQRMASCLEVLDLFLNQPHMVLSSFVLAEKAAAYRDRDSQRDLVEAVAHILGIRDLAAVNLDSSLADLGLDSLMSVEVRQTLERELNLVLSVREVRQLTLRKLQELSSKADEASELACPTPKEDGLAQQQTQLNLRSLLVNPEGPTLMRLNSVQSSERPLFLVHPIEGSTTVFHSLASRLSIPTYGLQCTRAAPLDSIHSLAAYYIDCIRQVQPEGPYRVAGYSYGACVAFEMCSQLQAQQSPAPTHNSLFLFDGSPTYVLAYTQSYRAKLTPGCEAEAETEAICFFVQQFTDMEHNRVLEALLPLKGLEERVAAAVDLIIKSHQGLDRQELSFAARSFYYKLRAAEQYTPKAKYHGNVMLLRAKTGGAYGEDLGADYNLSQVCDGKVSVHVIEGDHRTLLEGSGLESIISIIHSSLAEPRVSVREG

| IC50 | Compound |
| --- | --- |
| < 300 nM | CCNC(=O)[C@H]1CC[C@@H](n2nncc2-c2ccc(-c3ccc(C#N)cc3F)cc2)C1 [Compound A106, (1S,3R)-3-[5-(4′-Cyano-2′-fluoro-biphenyl-4-yl)-[1,2,3]triazol-1-yl]-cyclopentanecarboxylic acid ethylamide] |
| < 300 nM | CCC(=O)N[C@H]1CC[C@@H](n2nncc2-c2ccc(-c3ccc4[nH]ccc4c3)nc2)C1 [Compound A107, N-((1S,3R)-3-{5-[6-(1H-Indol-5-yl)-pyridin-3-yl]-[1,2,3]triazol-1-yl}-cyclopentyl)-propionamide] |
| < 300 nM | CCC(=O)N[C@H]1CC[C@@H](n2nncc2-c2ccc(-c3ccc4[nH]ccc4c3F)nc2)C1 [Compound A108, N-((1S,3R)-3-{5-[6-(4-Fluoro-1H-indol-5-yl)-pyridin-3-yl]-[1,2,3]triazol-1-yl}-cyclopentyl)-propionamide] |
| 300 to 3000 nM | CCC(=O)N[C@H]1CC[C@@H](n2nncc2-c2ccc(-c3ccc4nccn4c3)nc2)C1 [Compound A109, N-{(1S,3R)-3-[5-(6-Imidazo[1,2-a]pyridin-6-yl-pyridin-3-yl)-[1,2,3]triazol-1-yl]-cyclopentyl}-propionamide] |
| < 300 nM | CCC(=O)N[C@H]1CC[C@@H](n2nncc2-c2ccc(-c3ccc4[nH]ccc4c3F)cc2)C1 [Compound A110, N-((1S,3R)-3-{5-[4-(4-Fluoro-1H-indol-5-yl)-phenyl]-[1,2,3]triazol-1-yl}-cyclopentyl)-propionamide] |
| < 300 nM | CCC(=O)N[C@H]1CC[C@@H](n2nncc2-c2ccc(-c3ccc4nccn4c3)cc2)C1 [Compound A111, N-{(1S,3R)-3-[5-(4-Imidazo[1,2-a]pyridin-6-yl-phenyl)-[1,2,3]triazol-1-yl]-cyclopentyl}-propionamide] |
| < 300 nM | CCC(=O)N[C@H]1CC[C@@H](n2nncc2-c2ccc(-c3cc4cc[nH]c4cc3F)cc2)C1 [Compound A112, N-((1S,3R)-3-{5-[4-(6-Fluoro-1H-indol-5-yl)-phenyl]-[1,2,3]triazol-1-yl}-cyclopentyl)-propionamide] |
| < 300 nM | CCC(=O)N[C@H]1CC[C@@H](n2nncc2-c2ccc(-c3ccc4[nH]ccc4n3)cc2)C1 [Compound A113, N-((1S,3R)-3-{5-[4-(1H-Pyrrolo[3,2-b]pyridin-5-yl)-phenyl]-[1,2,3]triazol-1-yl}-cyclopentyl)-propionamide] |
| 300 to 3000 nM | CCC(=O)N[C@H]1CC[C@@H](n2nncc2-c2ccc(-c3nc4ccc(Cl)cc4o3)cn2)C1 [Compound A114, N-((1S,3R)-3-{5-[5-(6-Chloro-benzoxazol-2-yl)-pyridin-2-yl]-[1,2,3]triazol-1-yl}-cyclopentyl)-propionamide] |
| < 300 nM | CCC(=O)N[C@H]1CC[C@@H](n2nncc2-c2ccc(-c3nc4ccccc4o3)cn2)C1 [Compound A115, N-{(1S,3R)-3-[5-(5-Benzoxazol-2-yl-pyridin-2-yl)-[1,2,3]triazol-1-yl]-cyclopentyl}-propionamide] |
| < 300 nM | CCC(=O)N[C@H]1CC[C@@H](n2nncc2-c2ccc(-c3ccc4[nH]ccc4c3F)cn2)C1 [Compound A116, N-((1S,3R)-3-{5-[5-(4-Fluoro-1H-indol-5-yl)-pyridin-2-yl]-[1,2,3]triazol-1-yl}-cyclopentyl)-propionamide] |
| < 300 nM | CCC(=O)N[C@H]1CC[C@@H](n2nncc2-c2ccc(-c3ccc4[nH]ccc4c3)cn2)C1 [Compound A117, N-((1S,3R)-3-{5-[5-(1H-Indol-5-yl)-pyridin-2-yl]-[1,2,3]triazol-1-yl}-cyclopentyl)-propionamide] |
| < 300 nM | CCC(=O)N[C@H]1CC[C@@H](n2nncc2-c2ccc(-c3ccc4[nH]ccc4n3)cn2)C1 [Compound A118, N-((1S,3R)-3-{5-[5-(1H-Pyrrolo[3,2-b]pyridin-5-yl)-pyridin-2-yl]-[1,2,3]triazol-1-yl}-cyclopentyl)-propionamide] |
| < 300 nM | CCC(=O)N[C@H]1CC[C@@H](n2nncc2-c2ccc(-c3ccc4[nH]ccc4c3F)c(F)c2)C1 [Compound A119, N-((1S,3R)-3-{5-[3-Fluoro-4-(4-fluoro-1H-indol-5-yl)-phenyl]-[1,2,3]triazol-1-yl}-cyclopentyl)-propionamide] |
| < 300 nM | CCC(=O)N[C@H]1CC[C@@H](n2nncc2-c2ccc(-c3cc4cc[nH]c4cc3F)c(F)c2)C1 [Compound A120, N-((1S,3R)-3-{5-[3-Fluoro-4-(6-fluoro-1H-indol-5-yl)-phenyl]-[1,2,3]triazol-1-yl}-cyclopentyl)-propionamide] |
| < 300 nM | CCC(=O)N[C@H]1CC[C@@H](n2nncc2-c2ccc(-c3ccc4cc[nH]c4c3)nc2)C1 [Compound A121, N-((1S,3R)-3-{5-[6-(1H-Indol-6-yl)-pyridin-3-yl]-[1,2,3]triazol-1-yl}-cyclopentyl)-propionamide] |
| 300 to 3000 nM | CCC(=O)N[C@H]1CC[C@@H](n2nncc2-c2ccc(-c3ccc4ccn(C)c4c3)nc2)C1 [Compound A122, N-((1S,3R)-3-{5-[6-(1-Methyl-1H-indol-6-yl)-pyridin-3-yl]-[1,2,3]triazol-1-yl}-cyclopentyl)-propionamide] |
| 300 to 3000 nM | CCC(=O)N[C@H]1CC[C@@H](n2nncc2-c2ccc(-c3cccc4[nH]ncc34)nc2)C1 [Compound A123, N-((1S,3R)-3-{5-[6-(1H-Indazol-4-yl)-pyridin-3-yl]-[1,2,3]triazol-1-yl}-cyclopentyl)-propionamide] |
